Experimental data: the CheMixHub ionic liquid set

Experiment: xn = mol fraction of the nth substance listed
Conditions: 101 kPa

CCCCCCCCCCCCCC[n+]1ccccc1.O=C([O-])C(O)c1ccccc1 + NCC(=O)O + O
electrical conductivity [S/m]
Conditions | 293.15 K | 298.15 K | 303.15 K | 308.15 K | 313.15 K
x1 = 5.26e-06, x2 = 0.001799 | 0.00213 | 0.0024 | 0.00272 | 0.00305 | 0.0034
x1 = 6.85e-06, x2 = 0 | 0.00248 | 0.00278 | 0.00309 | 0.0034 | 0.0037
x1 = 8.31e-06, x2 = 0.0009002 | 0.00273 | 0.00309 | 0.00343 | 0.00385 | 0.0042
x1 = 1.142e-05, x2 = 0.001799 | 0.00389 | 0.00438 | 0.00491 | 0.0055 | 0.006
x1 = 1.319e-05, x2 = 0.0009002 | 0.00415 | 0.0047 | 0.00527 | 0.0058 | 0.0064
x1 = 1.424e-05, x2 = 0 | 0.00472 | 0.00529 | 0.00587 | 0.0065 | 0.0071
x1 = 1.685e-05, x2 = 0.001799 | 0.0054 | 0.0061 | 0.0069 | 0.0076 | 0.0084
x1 = 1.735e-05, x2 = 0.0009002 | 0.00534 | 0.00605 | 0.00678 | 0.0075 | 0.0082
x1 = 2.12e-05, x2 = 0.001799 | 0.0066 | 0.0075 | 0.0084 | 0.0093 | 0.0102
x1 = 2.126e-05, x2 = 0 | 0.00671 | 0.0076 | 0.0084 | 0.0093 | 0.0101
x1 = 2.367e-05, x2 = 0.0009002 | 0.00703 | 0.008 | 0.0089 | 0.0099 | 0.0108
x1 = 2.591e-05, x2 = 0.001799 | 0.00789 | 0.009 | 0.01 | 0.0111 | 0.0122
x1 = 2.811e-05, x2 = 0 | 0.0086 | 0.0097 | 0.0108 | 0.0122 | 0.0131
x1 = 2.982e-05, x2 = 0.0009002 | 0.0088 | 0.0098 | 0.011 | 0.0122 | 0.0134
x1 = 3.081e-05, x2 = 0.001799 | 0.0092 | 0.0104 | 0.0117 | 0.013 | 0.0143
x1 = 3.46e-05, x2 = 0 | 0.0103 | 0.0116 | 0.0129 | 0.0145 | 0.0157
x1 = 3.668e-05, x2 = 0.0009002 | 0.0104 | 0.0118 | 0.0132 | 0.0146 | 0.0161
x1 = 3.679e-05, x2 = 0.001799 | 0.0106 | 0.012 | 0.0134 | 0.015 | 0.0166
x1 = 4.108e-05, x2 = 0 | 0.0117 | 0.0131 | 0.0146 | 0.0161 | 0.0179
x1 = 4.337e-05, x2 = 0.0009001 | 0.0117 | 0.0131 | 0.0148 | 0.0165 | 0.0183
x1 = 4.367e-05, x2 = 0.001799 | 0.0119 | 0.0134 | 0.015 | 0.0168 | 0.0186
x1 = 4.811e-05, x2 = 0 | 0.0129 | 0.0144 | 0.0161 | 0.0179 | 0.0198
x1 = 4.951e-05, x2 = 0.0009001 | 0.0126 | 0.0143 | 0.0159 | 0.0178 | 0.0198
x1 = 5.11e-05, x2 = 0.001799 | 0.0131 | 0.0148 | 0.0166 | 0.0186 | 0.0206
x1 = 5.388e-05, x2 = 0 | 0.0137 | 0.0154 | 0.0172 | 0.0191 | 0.0211
x1 = 5.602e-05, x2 = 0.0009001 | 0.0135 | 0.0153 | 0.0171 | 0.0191 | 0.0212
x1 = 5.726e-05, x2 = 0.001799 | 0.014 | 0.0158 | 0.0176 | 0.0198 | 0.0219
x1 = 5.982e-05, x2 = 0 | 0.0145 | 0.0163 | 0.0182 | 0.0202 | 0.0224
x1 = 6.216e-05, x2 = 0.0009001 | 0.0144 | 0.0162 | 0.0181 | 0.0202 | 0.0224
x1 = 6.361e-05, x2 = 0.001799 | 0.0149 | 0.0167 | 0.0187 | 0.0209 | 0.0232
x1 = 6.559e-05, x2 = 0 | 0.0153 | 0.0172 | 0.0192 | 0.0213 | 0.0236
x1 = 6.885e-05, x2 = 0.0009001 | 0.0154 | 0.0172 | 0.0192 | 0.0214 | 0.0239
x1 = 6.959e-05, x2 = 0.001799 | 0.0156 | 0.0176 | 0.0197 | 0.0221 | 0.0245
x1 = 7.081e-05, x2 = 0 | 0.016 | 0.018 | 0.02 | 0.0223 | 0.0246
x1 = 7.463e-05, x2 = 0.0009001 | 0.0161 | 0.0181 | 0.0202 | 0.0225 | 0.0251
x1 = 7.593e-05, x2 = 0.001799 | 0.0165 | 0.0185 | 0.0207 | 0.0233 | 0.0258
x1 = 7.604e-05, x2 = 0 | 0.0167 | 0.0187 | 0.0209 | 0.0232 | 0.0258
x1 = 8.023e-05, x2 = 0.0009001 | 0.0168 | 0.0189 | 0.0211 | 0.0237 | 0.0263
x1 = 8.072e-05, x2 = 0 | 0.0173 | 0.0194 | 0.0217 | 0.0241 | 0.0266
